Test results published in patent US11976083B2, “Inhibitors of peptidylarginine deiminases” (Gilead Sciences, Inc., priority 2020, dated 2024).

Target: T1, human PAD4 (Homo sapiens, UniProt Q9UM07)
T1 construct: human PAD4 (NM_012387), A2-P663, was PCR amplified; His-SUMO (N, cleaved yes); made in house; host or cells: E. coli BL21(DE3)
Assay: In vitro PAD4 BAEE biochemical assay
Settings: BAEE substrate 3 mM, 5 nM PAD4, 2 mM calcium chloride; geometric mean of multiple experiments
How it was run: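 PAD4 5 nM, CaCl2 2 mM, BAEE 3 mM final; 50 mM MOPS pH 7.6, 50 mM NaCl, 0.05% Tween-20, 2 mM DTT. Cpd + enzyme 30 min 25 °C; substrate 2 h 25 °C; EDTA stop; OPA detection 1 h. IC50 4-parameter fit.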

T1 sequence (Q9UM07 2-663): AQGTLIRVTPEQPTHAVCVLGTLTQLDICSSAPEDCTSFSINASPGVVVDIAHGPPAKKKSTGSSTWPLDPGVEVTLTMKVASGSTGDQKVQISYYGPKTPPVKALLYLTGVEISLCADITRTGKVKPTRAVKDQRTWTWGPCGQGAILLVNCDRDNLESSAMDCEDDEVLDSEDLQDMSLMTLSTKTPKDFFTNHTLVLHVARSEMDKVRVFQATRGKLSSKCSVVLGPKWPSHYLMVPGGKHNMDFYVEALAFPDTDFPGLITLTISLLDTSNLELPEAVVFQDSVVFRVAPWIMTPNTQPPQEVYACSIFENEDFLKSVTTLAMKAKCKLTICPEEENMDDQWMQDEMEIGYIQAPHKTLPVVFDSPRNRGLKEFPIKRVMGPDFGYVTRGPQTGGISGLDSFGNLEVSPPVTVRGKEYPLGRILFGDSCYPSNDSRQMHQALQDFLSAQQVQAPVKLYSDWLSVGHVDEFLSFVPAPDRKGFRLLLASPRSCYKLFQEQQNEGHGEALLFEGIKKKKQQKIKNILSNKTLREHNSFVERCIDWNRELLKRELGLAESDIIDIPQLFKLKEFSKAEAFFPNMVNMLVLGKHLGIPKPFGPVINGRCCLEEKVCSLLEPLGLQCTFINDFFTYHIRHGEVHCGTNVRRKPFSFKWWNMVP

IC50 [µM] | Structure (SMILES)
0.036 | COc1cc(C(=O)N2CCC[C@@H](N)[C@H]2C)cc2nc(-c3cc4ccc5c(F)c4n3CCCCCCC(C)(C)C(=O)N[C@@H]5C)n(C)c12 [Example 645, (11~{R})-17-[5-[(2~{R},3~ {R})-3-amino-2-methyl-piperidine-1-carbonyl]-7-methoxy-1-methyl-benzimidazol-2-yl]-19-fluoro-8,8,11-trimethyl-1,10-diazatricyclo [10.5.2.0^{15,18}]nonadeca-12(19),13,15(18),16-tetraen-9-one]
0.058 | COc1cc(C(=O)N2CCC[C@@H](N)[C@H]2C(F)F)cc2nc(-c3cc4ccc5nc4n3CC(F)(F)CCC[C@@H]3C[C@H]3C(=O)N[C@@H]5C)n(C)c12 [Example 647, (2~{R},5~{R},7~{R})-14-[5-[(2~{S},3~{R})-3-amino-2-(difluoromethyl)piperidine-1-carbonyl]-7-methoxy-1-methyl-benzimidazol-2-yl]-11,11-difluoro-2-methyl-3,13,19-triazatetracyclo[11.5.2.0^ {5,7}.0^{16,20}] icosa-1(19),14,16(20), 17-tetraen-4-one]
0.041 | COc1cc(C(=O)N2CC[C@@H](OC)[C@@H](N)C2)cc2nc(-c3cc4ccc5c(F)c4n3CC(F)(F)CCC[C@@H]3C[C@H]3C(=O)N[C@@H]5C)n(C)c12 [Example 648, (2~{R},5~{R},7~{R})-14-[5-[(3~{S},4~{R})-3-amino-4-methoxy-piperidine-1-carbonyl]-7-methoxy-1-methyl-benzimidazol-2-yl]-11,11,19-trifluoro-2-methyl-3,13-diazatetracyclo[11.5.2.0^ {5,7}.0^{16,20}] icosa-1(19),14,16(20), 17-tetraen-4-one]
0.052 | COc1cc(C(=O)N2CC[C@@H](OC)[C@@H](N)C2)cc2nc(-c3cc4ccc5nc4n3CCCCCc3ccncc3C(=O)N[C@@H]5C)n(C)c12 [Example 649, (2~{R})-17-[5-[(3~{S), 4~{R})-3-amino-4-methoxy-piperidine-1-carbonyl]-7-methoxy-1-methyl-benzimidazol-2-yl]-2-methyl-3,7,16,22-tetrazatetracyclo[14.5.2.0^ {5,10}.0^{19,23}] tricosa-1(22),5,7,9,17,19(23), 20-heptaen-4-one]
0.059 | COc1cc(C(=O)N2CC[C@@H](OC)[C@@H](N)C2)cc2nc(-c3cc4ccc5nc4n3CCCCCc3cncc(F)c3C(=O)N[C@@H]5C)n(C)c12 [Example 650, (2~{R})-17-[5-[(3~{S}, 4~{R})-3-amino-4-methoxy-piperidine-1-carbonyl]-7-methoxy-1-methyl-benzimidazol-2-yl]-6-fluoro-2-methyl-3,8,16,22-tetrazatetracyclo[14.5.2.0^ {5,10}.0^{19,23}]tricosa-1(22),5,7,9,17,19(23),20-heptaen-4-one]
0.059 | COc1cc(C(=O)N2CC[C@@H](OC)[C@@H](N)C2)cc2nc(-c3cc4ccc5nc4n3CCCCCc3cncc(Cl)c3C(=O)N[C@@H]5C)n(C)c12 [Example 651, (2~{R})-17-[5-[(3~{S}, 4~{R})-3-amino-4-methoxy-piperidine-1-carbonyl]-7-methoxy-1-methyl-benzimidazol-2-yl]-6-chloro-2-methyl-3,8,16,22-tetrazatetracyclo[14.5.2.0^ {5,10).0^{19,23}]tricosa-1(22),5,7,9,17,19(23),20-heptaen-4-one]
0.044 | COc1cc(C(=O)N2CC[C@@H](OC)[C@@H](N)C2)cc2nc(-c3cc4ccc5nc4n3CCCCCc3cc(Cl)ncc3C(=O)N[C@@H]5C)n(C)c12 [Example 653, 17-[5-[(3~{S},4~{R})-3-amino-4-methoxy-piperidine-1-carbonyl]-7-methoxy-1-methyl-benzimidazol-2-yl]-8-chloro-2-methyl-3,7,16,22-tetrazatetracyclo[14.5.2.0^ {5,10}.0^{19,23}] tricosa-1(22),5,7,9,17,19(23), 20-heptaen-4-one]
0.06 | COc1cc(C(=O)N2CC[C@@H](OC)[C@@H](N)C2)cc2nc(-c3cc4ccc5nc4n3CCCCCc3ccnc(Cl)c3C(=O)N[C@@H]5C)n(C)c12 [Example 655, (2~{R})-17-[5-[(3~{S},4~{R})-3-amino-4-methoxy-piperidine-1-carbonyl]-7-methoxy-1-methyl-benzimidazol-2-yl]-6-chloro-2-methyl-3,7,16,22-tetrazatetracyclo[14.5.2.0^ {5,10}.0^{19,23}] tricosa-1(22),5,7,9,17,19(23), 20-heptaen-4-one]
0.124 | COc1cc(C(=O)N2CC[C@@H](OC)[C@@H](N)C2)cc2nc(-c3cc4ccc5nc4n3CCCCCc3nccc(F)c3C(=O)N[C@@H]5C)n(C)c12 [Example 656, (2˜{R})-17-[5-[(3˜{S},4˜{R})-3-amino-4-methoxy-piperidine-1-carbonyl]-7-methoxy-1-methyl-benzimidazol-2-yl]-6-fluoro-2-methyl-3,9,16,22-tetrazatetracyclo[14.5.2.0^{5,10}.0^{19,23}]tricosa-1(22),5,7,9,17,19(23),20-heptaen-4-one]

The next lines start with the compound.

Structure (SMILES) | IC50 [µM]
C[C@H]1NC(=O)[C@@H]2C[C@H]2CCCC(F)(F)Cn2c(-c3nc4cc(C(=O)N5C[C@H]6CC[C@@H]5[C@@H]6N)cc(F)c4n3C3CC3)cc3ccc1nc32 [Example 646, (2~{R},5~{R},7~{R})-14-[5-[(1~{R},4~{R},7~{R})-7-amino-2-azabicyclo [2.2.1]heptane-2-carbonyl]-1-cyclopropyl-7-fluoro-benzimidazol-2-yl]-11,11-difluoro-2-methyl-3,13,19-triazatetracyclo [11.5.2.0^{5,7}.0^{16,20}] icosa-1(19),14,16(20), 17-tetraen-4-one] | 0.022
CO[C@@H]1CCN(C(=O)c2ccc3c(c2)nc(-c2cc4ccc5nc4n2CCCCCc2cc(Cl)ncc2C(=O)N[C@@H]5C)n3C2CC2)C[C@@H]1N [Example 652, 17-[5-[(3~{S},4~{R})-3-amino-4-methoxy-piperidine-1-carbonyl]-1-cyclopropyl-benzimidazol-2-yl]-8-chloro-2-methyl-3,7,16,22-tetrazatetracyclo[14.5.2.0^ {5,10}.0^{19,23}] tricosa-1(22),5,7,9,17,19(23), 20-heptaen-4-one] | 0.042
COc1cc(C(=O)N2CC[C@@H](OC)[C@@H](N)C2)cc2nc(-c3cc4ccc5nc4n3CCCCCc3ccccc3C(=O)N(C)[C@@H]5C)n(C)c12 [Example 654, (2~{R})-17-[5-[(3~{S},4~{R})-3-amino-4-methoxy-piperidine-1-carbonyl]-7-methoxy-1-methyl-benzimidazol-2-yl]-2,3-dimethyl-3,16,22-triazatetracyclo[14.5.2.0^ {5,10).0^{19,23}] tricosa-1(22),5,7,9,17,19(23), 20-heptaen-4-one] | 0.051
COc1cc(C(=O)N2CCC[C@@H](N)[C@H]2C)cc2nc(-c3cc4ccc5nc4n3CCCCCc3cncc(F)c3C(=O)N[C@@H]5C)n(C)c12 [Example 657, (2~{R})-17-[5-[(2~{R},3~{R})-3-amino-2-methyl-piperidine-1-carbonyl]-7-methoxy-1-methyl-benzimidazol-2-yl]-6-fluoro-2-methyl-3,8,16,22-tetrazatetracyclo [14.5.2.0^{5,10}.0^{19,23}] tricosa-1(22),5,7,9,17,19(23), 20-heptaen-4-one] | 0.014
COc1cc(C(=O)N2C[C@H]3CC[C@@H]2[C@@H]3N)cc2nc(-c3cc4ccc5nc4n3CCCCCc3cncc(F)c3C(=O)N[C@@H]5C)n(C)c12 [Example 658, (2~{R})-17-[5-[(1~{R},4~ {R},7~{R})-7-amino-2-azabicyclo[2.2.1]heptane-2-carbonyl]-7-methoxy-1-methyl-benzimidazol-2-yl]-6-fluoro-2-methyl-3,8,16,22-tetrazatetracyclo[14.5.2.0^ {5,10).0^{19,23}] tricosa-1(22),5,7,9,17,19(23), 20-heptaen-4-one] | 0.025
[2H]C([2H])([2H])O[C@@H]1CCN(C(=O)c2cc(OC)c3c(c2)nc(-c2cc4ccc5nc4n2CCCCCc2cncc(F)c2C(=O)N[C@@H]5C)n3C)C[C@@H]1N [Example 659, (2~{R})-17-[5-[(3~{S),4~{R})-3-amino-4-(trideuteriomethoxy)piperidine-1-carbonyl]-7-methoxy-1-methyl-benzimidazol-2-yl]-6-fluoro-2-methyl-3,8,16,22-tetrazatetracyclo[14.5.2.0^ {5,10}.0^{19,23}] tricosa-1(22),5,7,9,17,19(23), 20-heptaen-4-one] | 0.032
COc1cc(C(=O)N2CC[C@@H](O)[C@@H](N)C2)cc2nc(-c3cc4ccc5nc4n3CCCCCc3cncc(F)c3C(=O)N[C@@H]5C)n(C)c12 [Example 660, (2~{R})-17-[5-[(3~{S},4~{R})-3-amino-4-hydroxy-piperidine-1-carbonyl]-7-methoxy-1-methyl-benzimidazol-2-yl]-6-fluoro-2-methyl-3,8,16,22-tetrazatetracyclo[14.5.2.0^ {5,10}.0^{19,23}] tricosa-1(22),5,7,9,17,19(23), 20-heptaen-4-one] | 0.016
CO[C@@H]1CCN(C(=O)c2cc(F)c3c(c2)nc(-c2cc4ccc5nc4n2CCCCCc2cncc(Cl)c2C(=O)N[C@@H]5C)n3C2CC2)C[C@@H]1N [Example 661, (2~{R})-17-[5-[(3~{S),4~ {R})-3-amino-4-methoxy-piperidine-1-carbonyl]-1-cyclopropyl-7-fluoro-benzimidazol-2-yl]-6-chloro-2-methyl-3,8,16,22-tetrazatetracyclo[14.5.2.0^ {5,10).0^{19,23}] tricosa-1(22),5,7,9,17,19(23), 20-heptaen-4-one] | 0.027
CO[C@@H]1CCN(C(=O)c2cc(F)c3c(c2)nc(-c2cc4ccc5nc4n2CCCCCc2cncc(F)c2C(=O)N[C@@H]5C)n3C2CC2)C[C@@H]1N [Example 662, (2~{R})-17-[5-[(3~{S},4~ {R})-3-amino-4-methoxy-piperidine-1-carbonyl]-1-cyclopropyl-7-fluoro-benzimidazol-2-yl]-6-fluoro-2-methyl-3,8,16,22-tetrazatetracyclo[14.5.2.0^ {5,10}.0^{19,23}] tricosa-1(22),5,7,9,17,19(23), 20-heptaen-4-one] | 0.032
